# Target: SERA5 (rSERA5-C) (Plasmodium falciparum, UniProt Q9TY95, S596C)
# Assay: fluorogenic peptide (Abz-LAQAVRSSSR-Dpa) cleavage assay with purified rSERA5-C, progress curves
# Type: biochemical
smiles,measurement,value
"CC(C)C[C@H](NC(=O)[C@H]1O[C@@H]1C(=O)O)C(=O)NCCCCN=C(N)N [E64, trans-epoxysuccinyl-L-leucylamido(4-guanidino)butane]",IC50,2.9 ± 0.3 µM
